“Also recorded” adds a separate entry of the source.
B1: ovalbumin: control protein (protein, UniProt P01012 2-386, looked up)
Ovalbumin: GSIGAASMEFCFDVFKELKVHHANENIFYCPIAIMSALAMVYLGAKDSTRTQINKVVRFDKLPGFGDSIEAQCGTSVNVHSSLRDILNQITKPNDVYSFSLASRLYAEERYPILPEYLQCVKELYRGGLEPINFQTAADQARELINSWVESQTNGIIRNVLQPSSVDSQTAMVLVNAIVFKGLWEKAFKDEDTQAMPFRVTEQESKPVQMMYQIGLFRVASMASEKMKILELPFASGTMSMLVLLPDEVSGLEQLESIINFEKLTEWTSSNVMEERKIKVYLPRMKMEEKYNLTSVLMAMGITDVFSSSANLSGISSAESLKISQAVHAAHAEINEAGREVVGSAEAGVDAASVSEEFRADHPFLFCIKHIATNAVLFFGRCVSP

Legend:
[1] = system: RA/Bt2cAMP-treated F9 cells; experiment: [125I]-HDL internalization and degradation assay; assay type: cell-based, mouse; conditions: [125I]-HDL 2 μg/ml, 6.5 h at 37° C.; unlabeled HDL 80 μg/ml, RAP 1 μM, chloroquine 50 μM, anti-cubilin IgG 150 μg/ml
Procedure: HDL internalization and degradation assays were performed in a manner similar to LDL and apolipoprotein J internalization and degradation assays described previously (Stefansson et al., 1995; Kounnas et al., 1995). ApoE-free HDL (HDL3) was labeled with [^125I]-iodine using the iodine monochloride method (Goldstein et al., 1983). RA/Bt2cAMP-treated and -untreated F9 cells were seeded onto gelatin-coated 3.83 cm^2 wells (Corning, Corning, N.Y.) at 1.5-1.75×10^5 cells/well and allowed to grow for 18 h at 37° C., 5% CO2. Prior to the addition of [^125I]-HDL, the cells were washed with serum-free DMEM and incubated in the assay medium (DMEM, 20 mM HEPES, ITS, penicillin/streptomycin, and 1.5% BSA) containing unlabeled HDL3 (80 μg/ml), RAP (1 μM), chloroquine (50 μM) (Sigma) or BSA (10 μM) and incubated for 0.5 hours at 37° C., 5% CO2. The medium was then removed and [^125I]-HDL3 (2 μg/ml) in serum-free medium or in serum-free medium containing unlabeled HDL3 (80 μg/ml), RAP (1 μM), chloroquine (50 μM) or BSA (10 μM) was added and incubated with the cells for 6.5 h at 37° C., 5% CO2. The conditioned culture medium was treated with trichloroacetic acid (final concentration 10%) and centrifuged at 10,000×g for 10 min. The amount of radioactivity present in the supernatant was taken to represent the amount of degraded HDL (Goldstein and Brown, 1974). […] The released cells were pelleted by centrifugation at 1,000×g for 15 min and the amount of radioactivity in the cell pellet measured.
HDL internalization and degradation assays were performed as described previously for LDL and apolipoprotein J (Hammad et al., 1997; Kounnas et al., 1995; Stefansson et al., 1995a). […] The amount of radioactivity in the supernatant was taken to represent the amount of degraded HDL (Goldstein and Brown, 1974). […] The released cells were pelleted by centrifugation at 1,000×g for 15 min and the amount of radioactivity in the cell pellet was measured and taken to represent the amount of internalized HDL.

[2] = system: RA/Bt2cAMP-treated F9 cells; experiment: DiI-HDL uptake by fluorescence-activated cell (FAC) scanning; assay type: cell-based, mouse; conditions: DiI-HDL 1 μg/ml, 37° C., competitors preincubated, apolipoproteins and RAP 1 μM, apoE 0.25 μM, heparin 80 μM, IgGs 200 μg/ml, heparinase I 10 U/ml
Procedure: Untreated and RA/Bt2cAMP-treated F9 cells (1-1.5×10^5 cells/cm^2) were grown for 18 hours in serum-free medium (DMEM, ITS, penicillin, and streptomycin). After washing the cell layers with the same serum-free medium, apoE-free DiI-HDL was added to a final concentration of 1 μg/ml and incubated for 1-2 hours at 37° C., 5% CO2. For competition experiments, competitors were added in serum-free medium and incubated for 0.5 hours at 37° C., 5% CO2 prior to the addition of the DiI-HDL. After the incubation, the medium was removed, cell layers washed with serum-free medium and the cells released with a 0.5 mg/ml trypsin-0.53 mM EDTA solution (Mediatech). The cells were then pelleted by centrifugation at 180×g and resuspended in DMEM. Twice more, the cells were pelleted by centrifugation at 180×g, and resuspended in dPBS. The cells were then subjected to FAC sorting on a FACStarplus instrument (Becton Dickinson, San Jose, Calif.).
RA/Bt2cAMP-treated and -untreated F9 cells (1-1.5×10^5 cclls/cm^2) were grown for 18 h in SFM. After washing the cell layers with SFM, DiI-HDL or DIO-LDL was added to a final concentration of 1 μg/ml and incubated for 2 h at 37° C., 5% CO2. For competition experiments, competitors (HDL, HDL2, HDL3 and their corresponding apoE-free forms), LDL, oxidized LDL, VLDL, §-VLDL, Lp(a) ([…]), apoA-I (28.3 μg/ml, 1 μM), apoA-II (I 7.3 μg/ml, 1 μM), apoC-I (6.6 μg/ml, 1 μM), apoC-III (8.8 μg/ml, 1 μM), apoJ (70 μg/ml, 1 μM), ovalbumin (45 μg/ml, 1 μM), RAP (39 μg/ml, 1 μM), apoE (8.5 μg/ml, 0.25 μM), heparin (80 μM, 250 U/ml) or IgGs (200 μg/ml) were added in SFM and incubated for 45 min at 37° C., 5% CO2 prior to the addition of the fluorescent lipoproteins. After the incubation, the medium was removed, cell layers were washed with SFM and the cells were released with trypsin-EDTA-proteinase K. The cells were washed once with DMEM, twice with dPBS, then subjected to FAC scanning on a FACStar Plus instrument (Becton Dickinson, San Jose, Calif.). Plotted data are from gated cells having fluorescence intensity values greater than the autofluorescence values of 99% of unlabeled cells. For some experiments, cell layers were treated with hepaninase I (10 U/ml) for 2 h prior to the addition of the DiI-HDL.

[3] = system: RA/Bt2cAMP-treated F9 cells; experiment: Cell layer-associated [35S]-sulfate after heparinase I treatment; assay type: cell-based, mouse; conditions: heparinase I 10 U/ml for 2 h; relative to controls
[4] = system: visceral yolk sac endoderm; experiment: DiI-HDL uptake by mouse embryo yolk sac (ex utero culture, confocal microscopy); conditions: ± S.D.; DiI-HDL 1 μg/ml 1 h; RAP, ovalbumin 1 μM; IgGs 400 μg/ml; p<0.01 vs control
Procedure: Embryos (8-8.5 days post-conception) were removed from timed pregnant ICR mice (Harlan Sprague Dawley, Inc.) so as to leave visceral yolk sac endoderm intact and placed in DMEM. The embryos were then incubated in DMEM containing RAP (1 μM), ovalbumin (1 μM), rabbit anti-cubilin IgG (400 μg/ml) or normal rabbit IgG (400 μg/ml) for 0.5 h at 37° C., 5% CO2. DiI-HDL was added to a final concentration of (1 μg/ml) and incubated for 1 h at 37° C., 5% CO2. The medium was removed and the embryos gently washed with dPBS and fixed with 3% paraformaldehyde for 15 min. The fixed embryos were placed in dPBS, 0.1% azide in a well slide and examined by laser scanning confocal microscopy. The intensity of yolk sac fluorescence in mouse embryos incubated with DiI-HDL in the presence of either RAP, ovalbumin, anti-cubilin IgG or control IgG was evaluated by seven people in a double blinded fashion. The assessments of relative intensity were analyzed by a nonparametric statistical test using RANK and ANOVA procedures (SAS Institute, Inc., Cary, N.C.).

| Molecule | DiI-HDL uptake in presence of competitor [2] | also measured |
| --- | --- | --- |
| CCN(CC)CCCC(C)Nc1ccnc2cc(Cl)ccc12 (centres unmarked) [chloroquine, reference compound] |  | degradation of [125I]-HDL [1]: effectively block the degradation |
| ApoAII: Human apolipoprotein, major apolipoprotein component of HDL | inhibit HDL uptake | DiI-HDL uptake in presence of competitor ([2]; listed as apoA-E): competed effectively |
| ApoE2: apolipoprotein component of HDL | inhibit HDL uptake |  |
| Aprotinin [reference compound] | inability of these ligands to block HDL uptake |  |
| Fucoidan [reference compound] | inability of these ligands to block HDL uptake |  |
| apoA-I: Human apolipoprotein, major apolipoprotein component of HDL | competed effectively | DiI-HDL uptake in presence of competitor ([2]; listed as ApoAI): inhibit HDL uptake |
| apoC-1: Human apolipoprotein (TPDVSSALDKLKEFGNTLEDKARELISRIKQSELSAKMREWFSETFQKVKEKLKIDS; UniProt P02654 27-83, looked up) | little or no ability to compete |  |
| apoC-III: Human apolipoprotein | little or no ability to compete |  |
| apoE: Human apoE3 purchased from Calbiochem | competed effectively |  |
| apoj: apolipoprotein J from Quidel | little or no ability to compete |  |
| heparin [reference compound] | Neither heparin nor heparinase I pretreatment of RA/Bt2cAMP-differentiated F9 cells inhibited DiI-HDL uptake; also recorded: did not block HDL uptake |  |
| heparinase I [reference compound] | Neither heparin nor heparinase I pretreatment of RA/Bt2cAMP-differentiated F9 cells inhibited DiI-HDL uptake | DiI-HDL uptake in presence of competitor ([2]; listed as heparinase): did not block HDL uptake; reduction of cell layer-associated [35S]-sulfate [3]: 50% |
| B1 |  | fluorescence intensity RANK score of DiI-HDL incorporation into extraembryonic endoderm [4]: 4.16±0.15 |
